ChEMBL document CHEMBL1201862, “PubChem BioAssay data set” (2004)
Active and inactive are the calls of the source. Rule as the data show it, for most assays here: actives have a measured EC50 and inactives only a lower limit.

Legend:
[1] = target: T1, Corticotropin-releasing factor receptor 2/Corticotropin-releasing factor-binding protein (Homo sapiens, UniProt P24387+Q13324); test: Dose Response confirmation of uHTS hits for small molecule antagonists of the CRF-binding protein and CRF-R2 receptor complex.; assay type: functional; conditions: read-out: IC50_Mean
T1 sequence (Q13324 whole entry): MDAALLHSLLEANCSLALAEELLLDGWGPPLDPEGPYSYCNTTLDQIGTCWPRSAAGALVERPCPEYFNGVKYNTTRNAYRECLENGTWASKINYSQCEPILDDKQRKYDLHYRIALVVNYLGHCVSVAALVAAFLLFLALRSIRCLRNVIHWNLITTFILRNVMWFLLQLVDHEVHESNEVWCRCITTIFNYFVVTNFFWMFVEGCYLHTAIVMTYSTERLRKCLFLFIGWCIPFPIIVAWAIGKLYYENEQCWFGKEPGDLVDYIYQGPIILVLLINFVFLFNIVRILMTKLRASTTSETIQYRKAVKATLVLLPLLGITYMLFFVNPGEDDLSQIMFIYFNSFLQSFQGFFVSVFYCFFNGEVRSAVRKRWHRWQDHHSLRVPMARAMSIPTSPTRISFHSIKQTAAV
T1 sequence (P24387 whole entry): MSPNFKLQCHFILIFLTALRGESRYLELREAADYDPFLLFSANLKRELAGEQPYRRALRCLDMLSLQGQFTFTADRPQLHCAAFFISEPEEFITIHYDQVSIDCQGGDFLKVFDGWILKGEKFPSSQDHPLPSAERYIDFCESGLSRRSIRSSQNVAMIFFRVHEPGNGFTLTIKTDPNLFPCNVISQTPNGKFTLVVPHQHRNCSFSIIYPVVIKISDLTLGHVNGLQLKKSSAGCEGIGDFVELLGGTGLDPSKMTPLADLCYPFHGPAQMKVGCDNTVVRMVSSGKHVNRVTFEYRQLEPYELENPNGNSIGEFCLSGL

[2] = target: T1, Corticotropin-releasing factor receptor 2/Corticotropin-releasing factor-binding protein; test: activators of CRF receptor 2 with binding protein – uHTS hits, confirmation (AID 602473); assay type: functional; conditions: read-out: EC50_Mean
[3] = target: T2, Heat shock factor protein 1 (Mus musculus, UniProt P38532); test: enhancement of HSF1-driven luciferase signal – cell-based, NIH3T3, luminescence, dose retest, confirmation (AID 435004); assay type: functional;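 also: stress induced by proteasome inhibitor MG132 added 30 min after compound; luciferase reporter driven by HSF1 response element in NIH3T3 cells; actives raise luminescence as potentiators of the MG132 stress response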
T2 sequence (P38532 whole entry): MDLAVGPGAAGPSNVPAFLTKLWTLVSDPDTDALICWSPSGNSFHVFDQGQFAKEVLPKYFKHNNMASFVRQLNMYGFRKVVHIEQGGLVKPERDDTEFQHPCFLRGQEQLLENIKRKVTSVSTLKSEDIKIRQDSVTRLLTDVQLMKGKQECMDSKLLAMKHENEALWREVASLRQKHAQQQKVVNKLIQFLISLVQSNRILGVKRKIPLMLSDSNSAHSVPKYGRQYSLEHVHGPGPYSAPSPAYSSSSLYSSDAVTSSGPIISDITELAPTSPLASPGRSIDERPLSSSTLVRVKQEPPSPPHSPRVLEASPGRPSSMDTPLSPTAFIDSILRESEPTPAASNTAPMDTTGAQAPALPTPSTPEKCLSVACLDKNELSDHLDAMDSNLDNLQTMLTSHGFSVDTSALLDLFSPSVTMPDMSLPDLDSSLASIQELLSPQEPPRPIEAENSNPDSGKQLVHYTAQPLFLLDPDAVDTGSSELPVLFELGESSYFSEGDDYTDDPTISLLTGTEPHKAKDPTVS

[4] = target: T3, RNA-binding protein pos-1 (Caenorhabditis elegans, UniProt G5EF15); test: disruptors of C. elegans POS-1 RNA interaction – biochemical, fluorescence polarization, dose response (AID 1964);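 also: purified POS-1 fused to maltose binding protein made in E. coli; potency of compounds blocking POS-1 binding to fluorescent RNA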
T3 sequence (G5EF15 whole entry): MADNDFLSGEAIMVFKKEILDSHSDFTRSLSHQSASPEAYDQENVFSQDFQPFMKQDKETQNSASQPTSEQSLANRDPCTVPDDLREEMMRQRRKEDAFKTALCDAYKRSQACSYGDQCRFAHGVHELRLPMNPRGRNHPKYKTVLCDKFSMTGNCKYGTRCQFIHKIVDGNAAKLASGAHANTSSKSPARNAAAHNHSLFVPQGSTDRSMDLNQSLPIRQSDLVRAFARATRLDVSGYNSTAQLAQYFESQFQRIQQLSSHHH

[5] = target: T4, Zinc finger protein mex-5 (Caenorhabditis elegans, UniProt Q9XUB2); test: potency of MEX-5 RNA-binding blockers – biochemical, C. elegans, fluorescence polarization, dose response (AID 1960)
T4 sequence (Q9XUB2 whole entry): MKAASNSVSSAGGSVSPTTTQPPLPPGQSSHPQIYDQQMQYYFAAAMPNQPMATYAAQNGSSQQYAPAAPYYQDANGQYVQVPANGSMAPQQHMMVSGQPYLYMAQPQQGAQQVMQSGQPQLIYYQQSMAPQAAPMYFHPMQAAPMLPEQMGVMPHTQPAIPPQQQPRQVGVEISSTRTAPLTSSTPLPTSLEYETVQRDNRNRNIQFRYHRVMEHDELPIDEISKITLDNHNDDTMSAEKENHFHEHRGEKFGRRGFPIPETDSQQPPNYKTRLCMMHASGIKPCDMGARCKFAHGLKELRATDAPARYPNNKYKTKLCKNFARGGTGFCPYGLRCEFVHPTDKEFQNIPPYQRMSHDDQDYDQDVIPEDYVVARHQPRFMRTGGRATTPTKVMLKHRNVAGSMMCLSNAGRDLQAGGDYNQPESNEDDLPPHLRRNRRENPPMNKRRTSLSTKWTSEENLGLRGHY

Protein skinhead-1 = target: T5, Protein skinhead-1 (Caenorhabditis elegans, UniProt P34707); assay type: functional
T5 sequence (P34707 whole entry): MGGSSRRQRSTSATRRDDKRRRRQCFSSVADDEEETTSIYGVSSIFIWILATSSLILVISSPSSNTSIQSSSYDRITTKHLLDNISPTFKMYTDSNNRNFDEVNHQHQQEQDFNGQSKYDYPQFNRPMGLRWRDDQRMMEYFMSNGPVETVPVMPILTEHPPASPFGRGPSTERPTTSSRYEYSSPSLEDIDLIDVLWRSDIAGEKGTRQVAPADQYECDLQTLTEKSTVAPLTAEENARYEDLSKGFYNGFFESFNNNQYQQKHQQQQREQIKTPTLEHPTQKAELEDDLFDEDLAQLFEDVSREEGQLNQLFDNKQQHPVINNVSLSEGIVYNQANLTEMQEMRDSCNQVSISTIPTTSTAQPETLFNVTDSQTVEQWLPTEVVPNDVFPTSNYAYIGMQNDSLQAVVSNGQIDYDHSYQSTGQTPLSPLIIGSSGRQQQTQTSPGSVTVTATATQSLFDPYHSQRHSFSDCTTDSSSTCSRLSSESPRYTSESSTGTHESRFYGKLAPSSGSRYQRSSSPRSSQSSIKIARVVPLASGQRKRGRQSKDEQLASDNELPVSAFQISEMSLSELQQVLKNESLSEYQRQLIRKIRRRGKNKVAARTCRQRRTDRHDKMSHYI

Large T antigen = Large T antigen (Simian virus 40, UniProt P03070); assay type: functional, Betapolyomavirus macacae;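 also: Confirmatory-stage PubChem screen for compounds that inhibit SV40 T antigen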
Chain of Large T antigen (P03070 whole entry): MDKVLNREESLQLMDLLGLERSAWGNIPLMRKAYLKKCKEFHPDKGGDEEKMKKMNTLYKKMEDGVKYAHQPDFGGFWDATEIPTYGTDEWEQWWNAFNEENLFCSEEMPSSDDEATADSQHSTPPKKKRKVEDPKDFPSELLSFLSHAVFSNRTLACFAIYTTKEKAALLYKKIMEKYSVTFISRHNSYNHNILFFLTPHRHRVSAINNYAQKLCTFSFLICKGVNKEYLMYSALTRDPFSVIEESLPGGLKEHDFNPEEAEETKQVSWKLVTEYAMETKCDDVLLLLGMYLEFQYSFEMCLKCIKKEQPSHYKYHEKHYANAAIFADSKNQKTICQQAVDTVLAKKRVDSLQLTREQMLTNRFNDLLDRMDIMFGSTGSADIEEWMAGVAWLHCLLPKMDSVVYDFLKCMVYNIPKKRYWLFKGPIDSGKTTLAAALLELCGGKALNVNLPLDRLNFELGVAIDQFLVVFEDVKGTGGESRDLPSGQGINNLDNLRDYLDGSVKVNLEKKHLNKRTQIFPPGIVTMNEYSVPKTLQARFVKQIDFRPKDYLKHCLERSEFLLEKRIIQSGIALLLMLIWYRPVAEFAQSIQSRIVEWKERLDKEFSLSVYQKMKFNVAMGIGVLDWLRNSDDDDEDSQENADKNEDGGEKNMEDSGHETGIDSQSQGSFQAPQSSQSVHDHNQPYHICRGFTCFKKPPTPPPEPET

[6] = Trypanosoma cruzi growth suppression in host cells – NIH3T3 host cells, beta-gal luminescence, confirmation (AID 2044); assay type: functional, cell-based;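 also: intracellular parasites grown in NIH/3T3 mouse fibroblasts as host cells; luminescent beta-galactosidase reporter signal from transgenic T. cruzi replicating inside host cells; inhibitors lower the luminescence signal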
[7] = NIH3T3 cell viability loss – ATP luminescence, mouse fibroblasts, counter-screen, dose response (AID 2010); assay type: functional, cell-based;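 also: cells exposed to compound for about 90 hours before reading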
[8] = Luminescence Cell-Based Dose Response HTS to Identify Activators of Luciferase Translation or Activity in H4 […] Cells. [Related pubchem assays: 1829 (Project Summary), 1814 (Primary HTS)]; assay type: functional
H4 = test: Luminescence Cell-Based Dose Response HTS to Identify Activators of 5'UTR Stem-Loop Driven Prion Protein mRNA Translation in H4 Neuroglioblastoma Cells. [Related pubchem assays: 1829 (Project Summary), 1814 (Primary HTS)]; assay type: functional; conditions: Homo sapiens
[9] = luciferase reporter signal suppression in cells – H4 neuroglioma cells, luminescence, dose response (AID 1990); assay type: functional, cell-based
[10] = Luminescence Cell-Based Dose Response HTS to Identify Inhibitors of 5'UTR Stem-Loop Driven Prion Protein mRNA Translation in H4 Neuroglioblastoma Cells. [Related pubchem assays: 1827 (Project Summary), 1813 (Primary HTS)]; assay type: functional
[11] = alpha-synuclein stem-loop luciferase translation blockers – H4 neuroglioma cells, luminescence, confirmation (AID 1988); assay type: functional, cell-based

## O=C(Nc1ccccc1Oc1cccnc1)C1CCCN(Cc2ccccc2O)C1 (stereo unspecified)
[1]
  IC50: > 47.1 µM (inactive)
[2]
  EC50: > 53 µM (inactive)

## Cc1ccn2cc(CSc3ccccc3N)nc2c1
[1]
  IC50: > 47.1 µM (inactive)
[2]
  EC50: > 53 µM (inactive)

## CCC(C)NC(=O)c1nc(O)c2nnn(Cc3ccccc3Cl)c2n1 (stereo unspecified)
[3]
  EC50: > 260 µM (inactive)

## O=c1oc2ccccc2c(NC2CCCCC2)c1NS(=O)(=O)c1ccc(Cl)cc1
[3]
  EC50: 120 µM (active)

## O=C1NC(=O)N(c2ccccc2F)C(=O)/C1=C/c1cn(CC(=O)N2CCOCC2)c2ccccc12
[4]
  EC50: > 300 µM (not active)
[5]
  EC50: > 300 µM (not active)

## CCN(CC)S(=O)(=O)c1cc(OC)c(C)cc1C
[1]
  IC50: > 47.1 µM (inactive)
[2]
  EC50: > 53 µM (inactive)

## O=C(CNC(=O)C1CCCCC1)Nc1ccc(F)c(Cl)c1
[1]
  IC50: > 47.1 µM (inactive)
[2]
  EC50: > 53 µM (inactive)

## CCN1CCN(Cc2c(O)ccc3c2O/C(=C\c2ccccc2)C3=O)CC1
[4]
  EC50: 30.3 µM (active)
[5]
  EC50: 57.9 µM (active)

## O=S(=O)(Cc1cc(Sc2ccccc2)nc(-c2ccccc2)n1)c1ccccc1
Protein skinhead-1
  IC50: > 100 µM (inactive)

## Cc1cc(C)nc(SCc2cc(=O)c(OC(=O)c3ccc(S(=O)(=O)N4CCCC4)cc3)co2)n1
Large T antigen
  IC50: 37.3 µM (active)

## O=C(Nc1nc(-c2ccc(Cl)s2)cs1)c1ccco1
Protein skinhead-1
  IC50: 13.7 µM (active)

## Fc1ccccc1OCCSc1nc2ccccc2o1
Protein skinhead-1
  IC50: 36.3 µM (active)

## COc1cc(/C=C2/N=C(c3ccccc3)OC2=O)c(F)cc1OCc1ccccc1
[4]
  EC50: > 300 µM (not active)
[5]
  EC50: > 300 µM (inconclusive)

## Cc1ccc(O)c(NC(=O)Cc2ccc3ccccc3c2)c1
[3]
  EC50: 7.7 µM (active)

## Sc1nc(-c2ccc(Br)cc2)cn1CCc1ccccc1
[3]
  EC50: > 260 µM (inactive)

## Cc1cc(C)c(OCCN(C)Cc2ccccc2)c(Br)c1
[6]
  EC50: 1.68 µM (active)
[7]
  EC50: > 60 µM (not active)
[1]
  IC50: > 47.1 µM (inactive)
[2]
  EC50: > 53 µM (inactive)

## COC(=O)c1ccc(-n2c(C)cc(C(=O)COC(=O)CC3Sc4ccccc4NC3=O)c2C)cc1 (stereo unspecified)
[4]
  EC50: > 300 µM (not active)
[5]
  EC50: > 300 µM (not active)

## COc1ccc(/C=C/c2cc(C(F)(F)F)nc(O)n2)cc1OC
[4]
  EC50: > 300 µM (not active)
[5]
  EC50: > 300 µM (not active)

## Brc1ccc2oc(-c3cc[nH]n3)cc2c1
[8]
  EC50: 281 nM (active)
H4
  EC50: 93.8 µM (active)
Protein skinhead-1
  IC50: 80 µM (inactive)

## CCOc1ccc(Br)cc1S(=O)(=O)NC(=O)c1ccccc1
[4]
  EC50: > 300 µM (not active)
[5]
  EC50: > 300 µM (not active)

## CCCCc1ccc(NS(=O)(=O)c2c(C)n(C)c(=O)n(C)c2=O)cc1
[3]
  EC50: > 260 µM (inactive)

## CC1(O)C(=O)C=C2C=C(C3CC3)OC=C2C1=O (stereo unspecified)
[4]
  EC50: 41.3 µM (active)
[5]
  EC50: 17.8 µM (active)

## CCOc1ccc(-c2nc(N)ncc2Oc2cccc(OC)c2)c(O)c1
[9]
  EC50: > 120 µM (not active)
[10]
  EC50: 16.4 µM (active)
[11]
  EC50: > 60 µM (not active)
[1]
  IC50: > 47.1 µM (inactive)
[2]
  EC50: > 53 µM (inactive)
Protein skinhead-1
  IC50: > 100 µM (inactive)

## Cc1nc2nc(C)c(CCC(=O)N3CCN(c4ccccc4)CC3)c(C)n2n1
Protein skinhead-1
  IC50: > 100 µM (inactive)

## CCCCCCC1CCC(C(=O)NC(CCSC)C(=O)NC(C(=O)OC)C(C)C)CC1 (stereo unspecified)
[3]
  EC50: > 260 µM (inactive)

## N#CCCn1cc(C=C(C#N)C#N)c(-c2ccc(-c3ccccc3)cc2)n1
[3]
  EC50: 7.51 µM (active)

## COC(=O)c1ccc(C#Cc2ccccc2)o1
Protein skinhead-1
  IC50: > 100 µM (inactive)

## CN1CCN(C(=O)c2ccccc2N(Cc2ccccc2)S(C)(=O)=O)CC1
Protein skinhead-1
  IC50: > 100 µM (inactive)

## COc1cc(CC(=O)N(c2ccccc2)c2nc(C)cs2)cc(OC)c1OC
[3]
  EC50: > 260 µM (inactive)

## O=[N+]([O-])c1ccc(Nc2ccc(Cl)cc2)nc1
Protein skinhead-1
  IC50: > 100 µM (inactive)

## O=C(CC1Sc2ccccc2NC1=O)NNc1cc(Cl)ccc1Cl (stereo unspecified)
Protein skinhead-1
  IC50: > 100 µM (inactive)

## Cc1ccc(S(=O)(=O)N2CCOCC2)cc1C(=O)NC1CCN(Cc2ccccc2)CC1
[1]
  IC50: > 47.1 µM (inactive)
[2]
  EC50: > 53 µM (inactive)

## Cc1cc(C(=O)N/N=C/c2ccc(-c3cccc(Cl)c3Cl)o2)[nH]n1
[4]
  EC50: 28.3 µM (active)
[5]
  EC50: 10.2 µM (active)

## COc1ccc(/C=N/NC(=O)c2ccccc2NC(=O)c2ccco2)c(OC)c1
[1]
  IC50: > 47.1 µM (inactive)
[2]
  EC50: > 53 µM (inactive)

## COc1ccc(/C=N/OCC(=O)N=Nc2c(O)[nH]c3ccc(Br)cc23)cc1
[1]
  IC50: 5.15 µM (active)
[2]
  EC50: > 53 µM (inactive)

## O=c1/c(=C/c2ccccc2)sc2nnc(-c3cccs3)n12
[3]
  EC50: 23.3 µM (active)
